Reference: PubChem BioAssay AID463204 (Broad Institute, 2010)
Activity calls are given as the source filed them.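 How the source made its calls: active means AC50 no more than ten times the top concentration tested, that is within one log above it; inconclusive means flat curve fit with activity between 30% and 70%, or invalid poor fit; inactive means AC50 beyond ten times the top tested dose.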

System: S. cerevisiae Mot1-301 ts growth rescue, BacTiter-Glo ATP luminescence
Experiment: growth rescue of Mot1-301 ts yeast, confirmation, SUMOylation pathway inhibitor project, whole organism, S. cerevisiae, Mot1-301 ts mutant, luminescence, dose retest (AID 463204);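 further: growth at restrictive 38.5 degrees C of Mot1-301 OY566 strain; actives raise luminescence by restoring growth of the ts mutant at high temperature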

| SMILES | AC50 |
| --- | --- |
| Cc1ccc(C)c(NC(NC(=O)c2ccccn2)C(Cl)(Cl)Cl)c1 (stereo unspecified) | > 42 µM (inactive) |
| CC(C)NC(=O)CCCc1cn(C)c2ccccc12 | > 42 µM (inactive) |
| COc1ccc(-c2c(C)nn3c(C)cc(C)nc23)cc1 | > 42 µM (inactive) |
| CSc1ccccc1NC(=O)COc1nsnc1N1CCOCC1 | > 42 µM (inactive) |
| O=C1CN(C(=O)c2ccccc2F)C(c2ccccc2)c2cc(Cl)ccc2N1 (stereo unspecified) | 1.84 µM |
| COc1ccc(N=Cc2c(O)n(C)c(=O)[nH]c2=O)cc1 | > 42 µM (inactive) |
| COc1ccc(NC(=O)CCCc2ccccc2)cc1OC | > 42 µM (inactive) |
| COc1ccccc1N1CCN(CCN2C(=O)C3CCCCN3C2=O)CC1 (stereo unspecified) | > 42 µM (inactive) |
| CS(=O)(=O)Nc1ccccc1C(=O)NCCSCc1ccccc1 | > 42 µM (inactive) |
| O=Nc1c(-c2cccc([N+](=O)[O-])c2)nc2ncccn12 | 4.09 µM |
| N#CCSc1nc2c(c(C3CC=CCC3)c1C#N)CCC2 (stereo unspecified) | > 42 µM (inactive) |
| CCC(C)[C@H](NC(=O)Nc1ccc(S(N)(=O)=O)cc1)C(=O)OC (stereo partly specified) | > 42 µM (inactive) |
| Cc1cc(C)c[n+](-c2nc3ccccc3nc2[N-]S(=O)(=O)c2ccc(Br)s2)c1 | > 42 µM (inactive) |
| CCOC(=O)c1ccc(CNC(=O)Cn2nnc(-c3ccc(C)cc3)n2)o1 | > 42 µM (inactive) |
| Cc1[nH]n(-c2ccccc2)c(=O)c1C(C[N+](=O)[O-])c1ccc(Br)cc1 (stereo unspecified) | > 42 µM (inactive) |
| COc1ccccc1CC(=O)N1CCOCC1 | > 42 µM (inactive) |
| COc1ccc(S(=O)(=O)N2CCCC2CNC(=O)C(=O)NCc2ccccn2)cc1 (stereo unspecified) | > 42 µM (inactive) |
| Cc1ccc(C)c(C(C)NC(=O)c2ccncc2)c1 (stereo unspecified) | > 42 µM (inactive) |
| COc1ccc(NC(=O)Nc2ccc(OC)cc2)cc1 | > 42 µM (inactive) |
| CN(C)C1(c2nnnn2-c2ccc(Cl)cc2)CCCCC1 | 27.9 µM |
| Cc1cc(C)cc(OC(=O)CS(=O)c2ccc(C(F)(F)F)cc2[N+](=O)[O-])c1 (stereo unspecified) | 3.48 µM |

| SMILES | AC50 |
| --- | --- |
| O=C(O)c1cccc(N2C(=O)C3C4C=CC(C4=C(c4ccccc4)c4ccccc4)C3C2=O)c1 (stereo unspecified) | > 42 µM (inactive) |
| COc1cccc(/C=C/C(=O)OCC(=O)Nc2ccc(Cl)cn2)c1 | > 42 µM (inactive) |
| Clc1ccc(N=c2ssnc2Cl)nc1 | 0.78 µM |
| COC(=O)c1ccccc1N(C)S(C)(=O)=O | > 42 µM (inactive) |
| COc1ccccc1OCCSc1nc2ccccc2n1CCC(=O)O | > 42 µM (inactive) |
| CC(C)(CNC(=O)c1cccs1)CNC(=O)c1cccs1 | > 42 µM (inactive) |
| O=C(Nc1ccc(OC(F)(F)F)cc1)c1ccc2ccccc2n1 | > 42 µM (inactive) |
| N#CC(C#N)=C1C=CC=CN1/C(=C\c1ccccc1Cl)C(=O)c1ccccc1 | 2.03 µM |
| COc1ccc(-n2c(C)cc(C(=O)CN3C(=O)NC4(CCCc5sccc54)C3=O)c2C)cc1 (stereo unspecified) | > 42 µM (inactive) |
| Cc1ccc(C(=O)N/C(=C/c2ccccc2)C(=O)NCC2CCCO2)cc1 (stereo unspecified) | > 42 µM (inactive) |
| O=C1CC(c2c[nH]c3ccccc23)C(=O)N1c1ccccc1 (stereo unspecified) | > 42 µM (inactive) |
| CC(=O)N1CCCc2cc(S(=O)(=O)Nc3ccc(C)cc3C)ccc21 | > 42 µM (inactive) |
| Cc1n[nH]c(C)c1S(=O)(=O)N(CC(=O)NC1CCCC1)c1ccc(C(C)C)cc1 | > 21 µM (inactive) |
| Fc1ccc2c(c1)nnn2C1CCN(Cc2nnnn2C2CCCCC2)CC1 | > 42 µM (inactive) |
| Cc1ccc(C(C(=O)Nc2ccc3c(c2)OCO3)N(C)C(=O)Cc2c[nH]c3ccccc23)cc1 (stereo unspecified) | > 42 µM (inactive) |
| CCCCOCCCNS(=O)(=O)Cc1ccccc1 | > 42 µM (inactive) |
| CCS(=O)(=O)N1CCC(C(=O)N2CCc3ccccc3C2)CC1 | > 42 µM (inactive) |
| O=C(CSc1nnc(-c2ccccc2Cl)o1)Oc1ccc(Br)cc1 | > 42 µM (inactive) |
| Cn1c(=O)c2c(ncn2CC(=O)N2CCCCCC2)n(C)c1=O | > 42 µM (inactive) |
| Cc1cc2c3c(c1)C1(SCC(=O)N1c1ccc(F)cc1)C(=O)N3C(C)(C)CC2C (stereo unspecified) | 6.97 µM |
